As a reminder, the IC50 is the midpoint of a concentration-inhibition curve.

Experiment [1] has as its system HepG2 cells. Kind of experiment: RT-qPCR of MAPK signaling pathway genes. Type of experiment: cell-based, human. The settings on record: BCP-treated HepG2 cells vs control cells. Here is the method:
HepG2 cells were treated by 150 µM BCP or ethanol for 24 h, followed by total RNA extraction using the TRIzol reagent (Thermo Fisher Scientific, cat#15596026). The quality and concentration of RNA were examined by MOPS RNA electrophoresis and Eppendorf BioSpectrometer. The transcriptome analysis was performed by BGI-Wuhan China. The RNA-seq dataset of this study is accessible in the Gene Expression Omnibus (GEO) with an access number of GSE276099. The sequence library for each sample was prepared using the BGISEQ-500 platform with a 50-bp single-end (SE50) format. HISAT (v2.2.1) was used to align the clean reads to the reference genome and alignment of the clean reads to the reference genes was carried out using Bowtie2 (v2.4.5) ([Langmead and Salzberg, 2012]; [Kim et al., 2015]). Gene expression levels were calculated by RSEM (v1.3.1) ([Li and Dewey, 2011]). Analysis of differential gene expression was performed using edgeR in the Bioconductor software package ([Robinson et al., 2010]). Using a standard protocol, the RNA samples were also examined by reverse transcription and quantitative polymerase chain reaction (RT-qPCR). In brief, for reverse transcription, total RNA (1 μg) and gDNA wiper Mix were incubated at 42°C for 2 min. The samples were immediately incubated with a master mix containing 10 pmol/μL of poly (dT) primers at 37°C for 15 min and 85°C for 5 s. […]
On the technique in general: Real-time PCR tracks product formation cycle by cycle.

Experiment [2] deals with SMMC-7721 cells. Kind of experiment: Matrigel transwell invasion assay. Type of experiment: cell-based, human. The following applies: 48 h, vs control. The procedure:
(§1) The transwell migration and invasion experiments were conducted using a 24-well plate (cat# 3422, Corning). HepG2 and SMMC-7721 cells (5 × 10^4) were suspended in 100 µL of medium supplied with ethanol, 150 and 300 µM of BCP and added to the top chamber, while 600 µL of complete medium containing 10% FBS was added into the lower chamber. After 48 h of incubation at 37°C, the cells from the top chamber were carefully removed using a cotton swab, while the cells penetrated through the membrane were fixed using 600 µL of 70% methanol for 15 min. To stain the cells, 600 µL of 0.2% crystal violet was used to treat the Transwell inserts for 10 min, followed by washing and drying, and the membranes of the inserts were photographed using an inverted microscope (Leica DM13000 B). The positive staining area was calculated using ImageJ software.
(§2) For invasion assay, Matrigel (Corning, cat# 356234) was used to precoat the top chamber. Cells (8 × 10^4) were added to the top chamber and the following procedure was the same as the migration assay described above.

Experiment [3] concerns HepG2 cells. Description: Matrigel transwell invasion assay. It counts as cell-based, human. The settings on record: 48 h, vs control. The procedure:
as §1, §2

Experiment [4] deals with HepG2 cells. Kind of experiment: Colony formation assay with ectopic PGF expression. It counts as cell-based, human. An excerpt: (§3) The placental growth factor (PGF) coding sequence was amplified using gene specific primers and then subcloned into a lentiviral vector pSL4-Flag expressing the puromycin resistance gene to generate pSL4-Flag-PGF vector with a CMV promoter driving PGF expression. The primers used to amplify the PGF coding sequence, check the amplified DNA fragment and verify its ectopic expression are listed in Supplementary Table S1. Lentiviruses carrying pSL4-Flag-PGF and an empty pSL4-Flag vector were produced and used to infect HCC cells based on our previously reported procedure ([Wan et al., 2012]). Ectopic PGF expression was achieved by infecting HCC cells with pSL4-Flag-PGF lentivirus, and the control cells were produced by infecting HCC cells using lentivirus carrying the empty pSL4-Flag-vector.
HepG2 cells were cultured overnight into 12-well plates with a density of 1×10^3 cells/well. The cells were then individually infected by pSL4-Flag-vector and pSL4-Flag-PGF lentiviruses. After 24 h, the cells were cultured in a complete medium containing 150 µM of BCP or an equal volume of ethanol for 10 days. The plates were washed using ice-cold PBS three times and cells were fixed using 70% ice-cold methanol for 20 min. […] The stained wells were photographed and clonogenicity was analyzed using ImageJ software.

Experiment [5] concerns SMMC-7721 cells. Description: CCK8 viability of cells infected by pSL4-Flag vector or pSL4-Flag-PGF lentivirus. Type of experiment: cell-based. The following applies: Homo sapiens. The procedure: (§4) Cell viability assay using the CCK8 reagent (Bimake, Shanghai, China) was conducted according to the manufacturer’s instructions. The cell proliferation data were used to calculate the cell viability. Briefly, HepG2, SMMC-7721, and HL-7702 cells with a density of 5 × 10^3 cells/well were seeded into each well of 96-well plates and incubated overnight. […] After 48 h, 10 µL of CCK8 reagent was added to each well, followed by 2 h incubation at 37°C and measurement of absorbance at 450 nm using a microplate reader (Molecular Devices, LLC.). The cell viability percentage of all compounds or their combinations at certain concentrations during the treatment period was evaluated by normalizing absorbance at 450 nm to that of vehicle controls. The half maximal inhibitory concentrations (IC50) values were calculated using the GraphPad Prism 8 software.
as §3

The test system of experiment [6] is HepG2 cells. The experiment is described as above. Type of experiment: cell-based. The following applies: Homo sapiens, HepG2, 48 h. Here is the method:
as §4, §3

For experiment [7], the system named is HepG2 cells. Kind of experiment: Transwell migration assay. The settings on record: Homo sapiens, 48 h, vs ethanol control, read-out: inhibition of cell migration. It counts as cell-based. Here is the method:
as §1

With `C=C1CC/C=C(\C)CC[C@@H]2[C@@H]1CC2(C)C` [BCP, β-caryophyllene], in the experiment on HepG2 cells [1], the “RT-qPCR verification of differential expression of NR4A1, CSF1R, PGF, ARTN, CACNA1E” value is listed as “confirmed”. Also, the “decrease of Matrigel infiltration (invasion)” value in the experiment with SMMC-7721 cells [2] (SMMC-7721, 150 µM) is listed as 17.67%; in the experiment with SMMC-7721 cells [2] (SMMC-7721, 300 µM), 49.64%; in the experiment with HepG2 cells [3] (HepG2, 150 µM) it was 46.3%; with HepG2 cells [3] (HepG2, 300 µM), 70.03%. Further, the colony formation result in the experiment with HepG2 cells [4] (HepG2 carrying pSL4-vector, 150 µM BCP 10 days, compared to control without BCP) is “significantly decreased colonies”; in the experiment on HepG2 cells [4] (HepG2 expressing ectopic PGF vs empty vector, same BCP treatment (150 µM, 10 days)), “more colonies”. The IC50 was found to be 318 µM in the experiment with SMMC-7721 cells [5] (SMMC-7721, SMMC-7721 cells carrying empty vector); 405 µM with SMMC-7721 cells [5] (SMMC-7721, SMMC-7721 cells expressing Flag-PGF); 178 µM in the experiment on HepG2 cells [6] (HepG2 cells carrying empty vector); 284 µM in the experiment with HepG2 cells [6] (HepG2 cells expressing Flag-PGF). Also, the inhibition at 150 µM in the experiment on HepG2 cells [7] (HepG2, 150 µM) worked out at 49%. Further, the inhibition at 300 µM with HepG2 cells [7] (HepG2, 300 µM) worked out at 75.6%.
